{
  "source": "paper PMC4091765",
  "about": "(Methods in molecular biology (Clifton, N.J.), 2013)",
  "key": {"PDE8A": {"target": "PDE8A (Homo sapiens, UniProt O60658)", "sequence (O60658 whole entry, species assumed)": "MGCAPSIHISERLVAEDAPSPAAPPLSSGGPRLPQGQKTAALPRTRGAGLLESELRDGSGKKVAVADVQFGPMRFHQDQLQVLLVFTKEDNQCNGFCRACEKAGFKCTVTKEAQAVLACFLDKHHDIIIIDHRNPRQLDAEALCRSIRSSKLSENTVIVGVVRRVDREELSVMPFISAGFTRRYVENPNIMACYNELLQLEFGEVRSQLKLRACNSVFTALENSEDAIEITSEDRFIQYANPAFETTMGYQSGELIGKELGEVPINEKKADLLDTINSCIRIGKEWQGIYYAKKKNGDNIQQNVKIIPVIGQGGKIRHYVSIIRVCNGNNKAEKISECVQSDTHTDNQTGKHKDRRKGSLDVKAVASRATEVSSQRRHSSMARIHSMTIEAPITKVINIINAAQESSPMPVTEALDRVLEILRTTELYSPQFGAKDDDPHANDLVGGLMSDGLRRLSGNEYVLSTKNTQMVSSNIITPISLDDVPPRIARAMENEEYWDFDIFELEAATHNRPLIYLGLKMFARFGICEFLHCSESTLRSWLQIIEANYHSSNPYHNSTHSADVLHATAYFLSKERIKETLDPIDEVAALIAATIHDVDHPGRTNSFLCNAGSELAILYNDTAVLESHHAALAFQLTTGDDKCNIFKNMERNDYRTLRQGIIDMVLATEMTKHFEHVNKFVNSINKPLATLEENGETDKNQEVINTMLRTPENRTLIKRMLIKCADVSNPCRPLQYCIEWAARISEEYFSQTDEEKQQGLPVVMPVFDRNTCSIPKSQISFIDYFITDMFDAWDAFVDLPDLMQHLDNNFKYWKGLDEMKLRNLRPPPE", "test": "PDE assay using isothermal titration calorimetry", "details": "ITC, compound as substrate; n.h. = not hydrolyzed"}, "PDE9A": {"target": "PDE9A (Homo sapiens, UniProt O76083)", "sequence (O76083 whole entry, species assumed)": "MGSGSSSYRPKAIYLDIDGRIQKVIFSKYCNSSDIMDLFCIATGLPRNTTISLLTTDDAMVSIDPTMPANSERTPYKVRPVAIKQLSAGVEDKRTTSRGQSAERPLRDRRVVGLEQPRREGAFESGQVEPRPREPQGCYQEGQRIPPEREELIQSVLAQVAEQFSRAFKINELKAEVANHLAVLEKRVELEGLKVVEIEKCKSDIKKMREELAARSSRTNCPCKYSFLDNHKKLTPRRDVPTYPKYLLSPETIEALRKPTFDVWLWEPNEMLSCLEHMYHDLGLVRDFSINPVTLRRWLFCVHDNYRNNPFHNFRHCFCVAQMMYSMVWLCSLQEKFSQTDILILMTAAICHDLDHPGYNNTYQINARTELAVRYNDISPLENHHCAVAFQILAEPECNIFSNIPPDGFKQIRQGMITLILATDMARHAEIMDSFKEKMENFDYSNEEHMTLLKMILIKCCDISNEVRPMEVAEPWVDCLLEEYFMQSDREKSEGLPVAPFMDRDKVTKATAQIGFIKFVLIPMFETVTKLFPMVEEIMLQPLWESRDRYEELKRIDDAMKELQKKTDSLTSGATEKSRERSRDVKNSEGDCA", "test": "PDE assay using isothermal titration calorimetry", "details": "ITC; for Ki: compound as inhibitor of PDE9; for Km: compound as substrate"}, "PDE1A": {"test_system": "PDE1A", "details": "ITC, compound as substrate; cited from earlier work"}, "PDE1B": {"test_system": "PDE1B", "details": "ITC, compound as substrate; cited from earlier work"}, "PDE1C": {"test_system": "PDE1C", "details": "ITC, compound as substrate; cited from earlier work"}, "PDE2A": {"test_system": "PDE2A", "details": "ITC, compound as substrate; cited from earlier work"}, "PDE4D": {"test_system": "PDE4D", "details": "ITC, compound as substrate; n.h. = not hydrolyzed; cited from earlier work"}, "PDE5": {"test_system": "PDE5", "details": "ITC, cited from earlier work"}, "PDE6": {"test_system": "PDE6", "details": "ITC, compound as substrate, cited from earlier work"}, "PDE10": {"test_system": "PDE10", "details": "ITC, compound as substrate; cited from earlier work"}, "PDEs": {"test_system": "PDEs", "test": "ITC PDE assays, summary over the PDE panel", "details": "result in words"}},
  "data": [
    {"compound": "Nc1nc2c(nc(Br)n2[C@@H]2O[C@@H]3COP(=O)(O)O[C@H]3[C@H]2O)c(=O)[nH]1", "note": "[8-Br-cGMP]", "values": [
      {"measurement": "Km", "setting": "PDE8A", "result": 0.55, "unit": "µM"},
      {"measurement": "Ki", "setting": "PDE9A", "result": 0.77, "unit": "µM"}
    ]},
    {"compound": "Nc1ncnc2c1nc(Br)n2[C@@H]1O[C@@H]2COP(=O)(O)O[C@H]2[C@H]1O", "note": "[8Br-cAMP]", "values": [
      {"measurement": "Km", "setting": "PDE9A", "result": 5.99, "unit": "µM"}
    ]},
    {"compound": "Nc1nc2c(nc(Sc3ccc(Cl)cc3)n2C2O[C@@H]3COP(=O)(O)O[C@H]3[C@H]2O)c(=O)[nH]1", "note": "(stereo in doubt) [8-pCPT-cGMP]", "values": [
      {"measurement": "Ki", "setting": "PDE9A", "result": 1.29, "unit": "µM"}
    ]},
    {"compound": "Nc1nc2c(ncn2[C@@H]2O[C@@H]3COP(=O)(O)O[C@H]3[C@H]2O)c(=O)[nH]1", "note": "[cGMP]", "values": [
      {"measurement": "Km", "setting": "PDE1A", "result": 8.2, "unit": "µM"},
      {"measurement": "Vmax", "setting": "PDE1A", "result": "20 ± 1.0", "unit": "µM/min/mg"},
      {"measurement": "Km", "setting": "PDE1B", "result": 5.4, "unit": "µM"},
      {"measurement": "Vmax", "setting": "PDE1B", "result": "2.6 ± 0.7", "unit": "µM/min/mg"},
      {"measurement": "Km", "setting": "PDE1C", "result": 4.6, "unit": "µM"},
      {"measurement": "Vmax", "setting": "PDE1C", "result": "1.4 ± 1.0", "unit": "µM/min/mg"},
      {"measurement": "Km", "setting": "PDE2A", "result": 31, "unit": "µM"},
      {"measurement": "Vmax", "setting": "PDE2A", "result": "176 ± 31", "unit": "µM/min/mg"},
      {"measurement": "Km", "setting": "PDE4D", "result": "n.h."},
      {"measurement": "Vmax", "setting": "PDE4D", "result": "n.h."},
      {"measurement": "Km", "setting": "PDE5; compound as substrate", "result": 2, "unit": "µM"},
      {"measurement": "Vmax", "setting": "PDE6; Vmax normalized, cGMP as substrate = 1", "result": "1.0 +/− 1.1"},
      {"measurement": "Km", "setting": "PDE6", "result": 10, "unit": "µM"},
      {"measurement": "Km", "setting": "PDE10", "result": 1.1, "unit": "µM"},
      {"measurement": "Vmax", "setting": "PDE10", "result": "1.6 ± 0.11", "unit": "µM/min/mg"},
      {"measurement": "Km", "setting": "PDE8A", "result": "n.h."},
      {"measurement": "Vmax", "setting": "PDE8A", "result": "n.h."},
      {"measurement": "Km", "setting": "PDE9A", "result": 0.2, "unit": "µM"}
    ]},
    {"compound": "CO[C@@H]1[C@@H]2OP(=O)(O)OC[C@H]2O[C@H]1n1c(Sc2ccc(Cl)cc2)nc2c(N)ncnc21", "note": "[8-pCPT-2-0-Me cAMP]", "values": [
      {"measurement": "substrate property for PDE5", "setting": "PDE5; result in words", "result": "rather good substrate for PDE5"}
    ]},
    {"compound": "COC1C2OP(O)(=S)OCC2OC1n1c(Sc2ccc(Cl)cc2)nc2c(N)ncnc21", "note": "(stereo not shown) [Sp-8-pCPT-2-0-Me-cAMPS]", "values": [
      {"measurement": "substrate property for PDEs", "setting": "PDEs; any PDE of the panel", "result": "not a substrate for any PDE"},
      {"measurement": "inhibition of PDEs", "setting": "PDEs; several PDEs of the panel", "result": "quite a good inhibitor of several of them"}
    ]}
  ]
}
